According to PubChem BioAssay AID206 (DTP/NCI, 2004):
Values joined by “and” are separate entries in the source; they are usually repeats but may differ in a detail not shown here. Identical values can stand only once. Results filed as inconclusive are left out.

System: nude mice, HT29 intrarenal xenograft, tumor weight T/C
Experiment: NCI In Vivo Anticancer Drug Screen. Data for tumor model HT29;CX-1 Human Adenocarcinoma (MER+) (intrarenal inoculation) in NU/NU Swiss (nude) mice
Settings: endpoint: mean tumor weight change, higher = larger tumour
Outline: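 Tumor-bearing mice received test compound or vehicle, and tumor size or survival was recorded. Values are the treated-group measurement divided by the vehicle-treated control measurement.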

[1] = dose: 100.0 mg/kg/injection, schedule: Q01DX010 (sc), vehicle: saline
[2] = dose: 300.0 mg/kg/injection, schedule: Q04DX004 (sc), vehicle: Klucel (hydroxypropylcellulose) (HPC)
[3] = dose: 600.0 mg/kg/injection, schedule: Q04DX004 (sc), vehicle: Klucel (hydroxypropylcellulose) (HPC)
[4] = dose: 50.0 mg/kg/injection, schedule: Q04DX004 (sc), vehicle: Klucel (hydroxypropylcellulose) (HPC)
[5] = dose: 100.0 mg/kg/injection, schedule: Q04DX004 (sc), vehicle: Klucel (hydroxypropylcellulose) (HPC)
[6] = dose: 150.0 mg/kg/injection, schedule: Q04DX004 (sc), vehicle: saline with Tween-80

**Q.** CCCC(=O)Nc1ncnc2c1ncn2C1OC2COP(=O)(O)OC2C1OC(=O)CCC (centres undefined) was tested. Which T/C [1] did it give?
**A.** 106 % of control

**Q.** What about the T/C (dose: 200.0 mg/kg/injection, schedule: Q01DX010 (sc), vehicle: saline) of the same molecule?
**A.** 18 % of control

**Q.** And the T/C (dose: 400.0 mg/kg/injection, schedule: Q01DX010 (sc), vehicle: saline)?
**A.** 80 % of control

**Q.** What about the T/C (dose: 800.0 mg/kg/injection, schedule: Q01DX010 (sc), vehicle: saline) of the same molecule?
**A.** 44 % of control

**Q.** CO[C@H](C(=O)[C@@H](O)[C@@H](C)O)[C@@H]1Cc2cc3cc(OC4CC(OC5CC(O)C(O)C(C)O5)C(O)C(C)O4)c(C)c(O)c3c(O)c2C(=O)[C@H]1OC1CC(OC2CC(OC3CC(C)(O)C(O)C(C)O3)C(O)C(C)O2)C(O)C(C)O1 (some centres undefined) was tested. Which T/C (dose: 0.25 mg/kg/injection, schedule: Q04DX004 (sc), vehicle: saline) did it give?
**A.** 87 % of control

**Q.** And the T/C (dose: 0.5 mg/kg/injection, schedule: Q04DX004 (sc), vehicle: saline)?
**A.** 53 % of control

**Q.** And the T/C (dose: 1.0 mg/kg/injection, schedule: Q04DX004 (sc), vehicle: saline)?
**A.** 54 % of control

**Q.** And the T/C (dose: 2.0 mg/kg/injection, schedule: Q01DX010 (sc), vehicle: saline)?
**A.** -80 % of control

**Q.** What about the T/C (dose: 2.0 mg/kg/injection, schedule: Q04DX004 (sc), vehicle: saline) of the same molecule?
**A.** 61 % of control

**Q.** Which T/C (dose: 100.0 mg/kg/injection, schedule: Q04DX004 (sc), vehicle: water) does the source give for CC(=O)NC(C=O)OCC=O (centres undefined) here?
**A.** 106 % of control

**Q.** And the T/C (dose: 200.0 mg/kg/injection, schedule: Q04DX004 (sc), vehicle: water)?
**A.** 121 % of control

**Q.** CN(C)CCCNc1c2ccccc2nc2cccc([N+](=O)[O-])c12 was tested. Which T/C (dose: 0.37 mg/kg/injection, schedule: Q04DX004 (sc), vehicle: saline) did it give?
**A.** 226 % of control

**Q.** With C[n+]1c2cc(N)ccc2cc2ccc(N)cc21 as the molecule, how does the T/C (dose: 1.56 mg/kg/injection, schedule: Q01DX010 (sc), vehicle: saline) read?
**A.** 72 % of control

**Q.** What about the T/C (dose: 3.13 mg/kg/injection, schedule: Q01DX010 (sc), vehicle: saline) of the same molecule?
**A.** 49 % of control

**Q.** And the T/C (dose: 6.25 mg/kg/injection, schedule: Q01DX010 (sc), vehicle: saline)?
**A.** 88 % of control

**Q.** Which results are given for O=c1[nH]cnc2n[nH]nc12?
**A.** T/C [2]: 94 % of control; T/C [3]: 50 % of control; T/C (dose: 2400.0 mg/kg/injection, schedule: Q04DX004 (sc), vehicle: Klucel (hydroxypropylcellulose) (HPC)): 30 % of control

**Q.** With [N-]=[N+]=CC(=O)CCC(N)C(=O)O (centres undefined) as the molecule, how does the T/C (dose: 0.1 mg/kg/injection, schedule: Q01DX010 (sc), vehicle: saline) read?
**A.** 73 % of control

**Q.** What about the T/C (dose: 0.2 mg/kg/injection, schedule: Q01DX010 (sc), vehicle: saline) of the same molecule?
**A.** 43 % of control

**Q.** With O=C(C#Cc1ccccc1)c1ccccc1 as the molecule, how does the T/C (dose: 12.5 mg/kg/injection, schedule: Q04DX004 (sc), vehicle: Klucel (hydroxypropylcellulose) (HPC)) read?
**A.** 71 % of control

**Q.** What about the T/C (dose: 25.0 mg/kg/injection, schedule: Q04DX004 (sc), vehicle: Klucel (hydroxypropylcellulose) (HPC)) of the same molecule?
**A.** 64 % of control

**Q.** What about the T/C [4] of the same molecule?
**A.** 88 % of control

**Q.** What about the T/C [5] of the same molecule?
**A.** 76 % of control

**Q.** Which T/C (dose: 100.0 mg/kg/injection, schedule: Q01DX010 (sc), vehicle: saline with Tween-80) does the source give for CCO/C=C1\SC(=S)N(c2ccccc2C)C1=O here?
**A.** 80 % of control

**Q.** What about the T/C (dose: 200.0 mg/kg/injection, schedule: Q01DX010 (sc), vehicle: saline with Tween-80) of the same molecule?
**A.** 102 % of control

**Q.** And the T/C (dose: 400.0 mg/kg/injection, schedule: Q01DX010 (sc), vehicle: saline with Tween-80)?
**A.** 177 % of control

**Q.** What about the T/C (dose: 800.0 mg/kg/injection, schedule: Q01DX010 (sc), vehicle: saline with Tween-80) of the same molecule?
**A.** 107 % of control

**Q.** For CCCCCCCCCCCCCCCCCC(=O)Nc1ccn(C2OC(CO)C(O)C2O)c(=O)n1 (centres undefined), which T/C [6] is on record?
**A.** 49 % of control and 61 % of control

**Q.** And the T/C (dose: 300.0 mg/kg/injection, schedule: Q04DX004 (sc), vehicle: saline with Tween-80)?
**A.** 67 % of control and 89 % of control

**Q.** And the T/C (dose: 1200.0 mg/kg/injection, schedule: Q04DX004 (sc), vehicle: saline with Tween-80)?
**A.** 14 % of control and 32 % of control

**Q.** CCCCNCCCNCCCNC(=O)c1csc(-c2csc(CCNC(=O)C(NC(=O)C(C)C(O)C(C)NC(=O)C(NC(=O)c3nc(C(CC(N)=O)NCC(N)C(N)=O)nc(N)c3C)C(OC3OC(CO)C(O)C(O)C3OC3OC(CO)C(O)C(OC(N)=O)C3O)c3cnc[nH]3)C(C)O)n2)n1 (centres undefined) was tested. Which T/C (dose: 8.0 mg/kg/injection, schedule: Q01DX010 (sc), vehicle: saline) did it give?
**A.** 69 % of control and 83 % of control

**Q.** What about the T/C (dose: 16.0 mg/kg/injection, schedule: Q01DX010 (sc), vehicle: saline) of the same molecule?
**A.** 76 % of control and 80 % of control

**Q.** And the T/C (dose: 32.0 mg/kg/injection, schedule: Q01DX010 (sc), vehicle: saline)?
**A.** 66 % of control and 68 % of control

**Q.** And the T/C (dose: 64.0 mg/kg/injection, schedule: Q01DX010 (sc), vehicle: saline)?
**A.** 23 % of control and 25 % of control

**Q.** How did the T/C (dose: 225.0 mg/kg/injection, schedule: Q04DX004 (sc), vehicle: suspension in saline) turn out when C=C(C(=O)O)C(N)C(=O)O (centres undefined) was run?
**A.** 114 % of control

**Q.** And the T/C (dose: 450.0 mg/kg/injection, schedule: Q04DX004 (sc), vehicle: suspension in saline)?
**A.** 64 % of control

**Q.** What about the T/C (dose: 900.0 mg/kg/injection, schedule: Q04DX004 (sc), vehicle: suspension in saline) of the same molecule?
**A.** 109 % of control

**Q.** For O=C(O)C1CC1.[Ag], which T/C (dose: 75.0 mg/kg/injection, schedule: Q04DX004 (sc), vehicle: saline with Tween-80) is on record?
**A.** 81 % of control

**Q.** What about the T/C [6] of the same molecule?
**A.** 64 % of control

**Q.** With COC1CC(C)C(OC)C2=CC(=O)C=C(NC(=O)/C(C)=C/C=C\C(C)C(OC(N)=O)/C(C)=C\C(C)C1OC)C2=O (centres undefined) as the molecule, how does the T/C (dose: 12.5 mg/kg/injection, schedule: Q04DX004 (sc), vehicle: saline + alcohol) read?
**A.** 99 % of control

**Q.** What about the T/C (dose: 25.0 mg/kg/injection, schedule: Q04DX004 (sc), vehicle: saline + alcohol) of the same molecule?
**A.** 73 % of control

**Q.** What about the T/C (dose: 50.0 mg/kg/injection, schedule: Q04DX004 (sc), vehicle: saline + alcohol) of the same molecule?
**A.** 53 % of control

**Q.** Which results are given for O=C(O)/C=C/C(=O)Nc1ccc(Cl)c(Cl)c1?
**A.** T/C [4]: 151 % of control; T/C [5]: 102 % of control; T/C (dose: 200.0 mg/kg/injection, schedule: Q04DX004 (sc), vehicle: Klucel (hydroxypropylcellulose) (HPC)): 91 % of control

**Q.** What does the source list for OCCO?
**A.** T/C (dose: 4.0 % in 0.5 ml injection vol, schedule: Q04DX004 (sc), vehicle: other): 85 % of control; T/C (dose: 8.0 % in 0.5 ml injection vol, schedule: Q04DX004 (sc), vehicle: other): 46 % of control; T/C (dose: 16.0 % in 0.5 ml injection vol, schedule: Q04DX004 (sc), vehicle: other): 26 % of control

**Q.** What does the source list for Cc1ccc(C(=O)[O][Hg][CH2]C2COC([CH2][Hg][O]C(=O)c3ccc(C)cc3)CO2)cc1 (centres undefined)?
**A.** T/C (dose: 150.0 mg/kg/injection, schedule: Q04DX004 (sc), vehicle: Klucel (hydroxypropylcellulose) (HPC)): 87 % of control; T/C [2]: 51 % of control; T/C [3]: 47 % of control; T/C (dose: 1200.0 mg/kg/injection, schedule: Q04DX004 (sc), vehicle: Klucel (hydroxypropylcellulose) (HPC)): 42 % of control

**Q.** For CCC(C(=O)O)C(=O)O.[NH-]CC1CCCC[N-]1.[Pt+2], which T/C (dose: 50.0 mg/kg/injection, schedule: Q04DX004 (sc), vehicle: saline) is on record?
**A.** 113 % of control

**Q.** And the T/C (dose: 100.0 mg/kg/injection, schedule: Q04DX004 (sc), vehicle: saline)?
**A.** 96 % of control

**Q.** What about the T/C (dose: 200.0 mg/kg/injection, schedule: Q04DX004 (sc), vehicle: saline) of the same molecule?
**A.** 79 % of control

**Q.** What about the T/C (dose: 400.0 mg/kg/injection, schedule: Q04DX004 (sc), vehicle: saline) of the same molecule?
**A.** 59 % of control

**Q.** For O=CC(=O)c1ccc(O)cc1, which T/C (dose: 150.0 mg/kg/injection, schedule: Q04DX004 (sc), vehicle: saline) is on record?
**A.** 73 % of control

**Q.** And the T/C (dose: 300.0 mg/kg/injection, schedule: Q04DX004 (sc), vehicle: saline)?
**A.** 67 % of control

**Q.** And the T/C (dose: 600.0 mg/kg/injection, schedule: Q04DX004 (sc), vehicle: saline)?
**A.** 56 % of control

**Q.** How did the T/C (dose: 10.0 mg/kg/injection, schedule: Q04DX004 (sc), vehicle: saline) turn out when O=NN(CCCl)C(=O)NC1[C@H](O)CCC[C@@H]1O (some centres undefined) was run?
**A.** 90 % of control

**Q.** Which results are given for O=C(O)CCCc1ccc(N(CCCl)CCCl)cc1?
**A.** T/C (dose: 0.13 mg/kg/injection, schedule: Q04DX004 (ip), vehicle: Klucel (hydroxypropylcellulose) (HPC)): 88 % of control; T/C (dose: 0.2 mg/kg/injection, schedule: Q04DX004 (ip), vehicle: Klucel (hydroxypropylcellulose) (HPC)): 109 % of control; T/C (dose: 0.3 mg/kg/injection, schedule: Q04DX004 (ip), vehicle: Klucel (hydroxypropylcellulose) (HPC)): 83 % of control

**Q.** Which results are given for CC1(C)N=C(N)N=C(N)N1c1ccc(CCCCc2ccc(S(=O)(=O)F)cc2Cl)c(Cl)c1?
**A.** T/C (dose: 12.5 mg/kg/injection, schedule: Q01DX010 (sc), vehicle: saline): 84 % of control and 100 % of control; T/C (dose: 50.0 mg/kg/injection, schedule: Q01DX010 (sc), vehicle: saline): 98 % of control; T/C [1]: 81 % of control

**Q.** How did the T/C (dose: 18.75 mg/kg/injection, schedule: Q04DX004 (sc), vehicle: saline) turn out when CCOC(=O)C(N)C[S][Sn]([CH3])([CH3])[Cl] (centres undefined) was run?
**A.** 169 % of control

**Q.** What about the T/C (dose: 75.0 mg/kg/injection, schedule: Q04DX004 (sc), vehicle: saline) of the same molecule?
**A.** 72 % of control
